Measurements from ChEMBL document CHEMBL4346677, “Compounds based on 5-(perylen-3-ylethynyl)uracil scaffold: High activity against tick-borne encephalitis virus and non-specific activity against enterovirus A” (Eur J Med Chem, 2019).
The source made the active and inactive calls. No cut-off for these calls is given here.

What was measured:
[1] = Cytotoxicity against African green monkey Vero cells assessed as reduction in cell viability after 7 days by microscopic method; format: cell-based; conditions: chlorocebus sabaeus
[2] = test system: RD; assay: Cytotoxicity against human RD cells assessed as formation of syncytium-like patterns of cells at 50 uM after 7 days by microscopic method; format: cell-based; conditions: 168 h
[3] = Cytotoxicity against human RD cells assessed as reduction in cell viability after 24 hrs by microscopic method; format: cell-based
[4] = Cytotoxicity against human RD cells assessed as reduction in cell viability after 7 days by microscopic method; format: cell-based
[5] = test system: Enterovirus A71; assay: Antiviral activity against Enterovirus A71 isolate 46973 infected in human RD cells assessed as reduction in virus induced cytopathic effect preincubated with viral suspension for 1 hr followed by cell addition measured after 5 to 7 days; format: functional, organism-based
[6] = test system: Vero; assay: Cytotoxicity against African green monkey Vero cells assessed as formation of syncytium-like patterns of cells at 50 uM after 7 days by microscopic method; format: cell-based; conditions: chlorocebus sabaeus, 168 h
[7] = test system: Poliovirus 1; assay: Antiviral activity against poliovirus type 1 sabin 1; format: functional, organism-based
[8] = test system: Echovirus; assay: Antiviral activity against Echovirus 30 isolate 48461; format: functional, organism-based
[9] = Cytotoxicity against African green monkey Vero cells assessed as reduction in cell viability after 24 hrs by microscopic method; format: cell-based; conditions: chlorocebus sabaeus
[10] = Cytotoxicity against PEK cells assessed as formation of syncytium-like patterns of cells at 50 uM after 7 days by microscopic method; format: cell-based, Sus scrofa; conditions: pig, 168 h
[11] = test system: Tick-borne encephalitis virus; assay: Antiviral activity against TBEV Absettarov infected in PEK cells assessed as plaque reduction preincubated for 1 hr followed by overlaying with 1.26% methylcellulose and measured after 6 days by gentian violet staining-based assay; format: functional, organism-based
[12] = Cytotoxicity against PEK cells assessed as reduction in cell viability after 7 days by microscopic method; format: cell-based, Sus scrofa; conditions: pig
[13] = Cytotoxicity against PEK cells assessed as reduction in cell viability after 24 hrs by microscopic method; format: cell-based, Sus scrofa; conditions: pig

| Structure (SMILES) | CC50 at 168 h [1] | Activity [2] | CC50 at 24 h [3] | CC50 at 168 h [4] | EC50 [5] | Activity [6] | Activity [7] | Activity [8] | CC50 at 24 h [9] | Activity [10] | EC50 [11] | CC50 at 168 h [12] | CC50 at 24 h [13] |
| --- | --- | --- | --- | --- | --- | --- | --- | --- | --- | --- | --- | --- | --- |
| O=C(O)Cn1cc(C#Cc2ccc3c4cccc5cccc(c6cccc2c63)c54)c(=O)[nH]c1=O | > 50 µM | Toxic | 61 µM | 65 µM | Not Active | Toxic | inactive | inactive | > 50 µM | Toxic | 50 nM | > 50 µM | > 50 µM |
| CCCCNC(=O)Cn1cc(C#Cc2ccc3c4cccc5cccc(c6cccc2c63)c54)c(=O)[nH]c1=O | – | Toxic | 76 µM | 76 µM | Not Active | Toxic | inactive | inactive | – | Toxic | 14 nM | > 50 µM | > 50 µM |
| CC(C)(C)C(=O)OCn1c(=O)c(C#Cc2ccc3c4cccc5cccc(c6cccc2c63)c54)cn(CC(=O)NCCO)c1=O | 38 µM | Toxic | 19 µM | 38 µM | Not Active | Toxic | inactive | inactive | 32 µM | Toxic | 2.1 nM | > 50 µM | > 50 µM |
| CC(C)(C)C(=O)OCn1c(=O)c(C#Cc2ccc3c4cccc5cccc(c6cccc2c63)c54)cn(CC(=O)O)c1=O | – | Toxic | – | – | – | Toxic | inactive | inactive | – | Toxic | 1.2 nM | > 50 µM | > 50 µM |
| O=C(Cn1cc(C#Cc2ccc3c4cccc5cccc(c6cccc2c63)c54)c(=O)[nH]c1=O)NCCCCCCO | > 50 µM | Toxic | 19 µM | 38 µM | Not Active | Toxic | inactive | inactive | 38 µM | Toxic | 6.1 nM | > 50 µM | > 50 µM |
| O=C(Cn1cc(C#Cc2ccc3c4cccc5cccc(c6cccc2c63)c54)c(=O)[nH]c1=O)NCCO | – | Toxic | > 104 µM | > 104 µM | Not Active | Toxic | inactive | inactive | – | Toxic | 3 nM | > 50 µM | > 50 µM |
| CC(C)(C)C(=O)OCn1c(=O)c(C#Cc2ccc3c4cccc5cccc(c6cccc2c63)c54)cn(CC(=O)NCCCCCCO)c1=O | > 50 µM | Toxic | 19 µM | 38 µM | Not Active | Toxic | inactive | inactive | 38 µM | Toxic | 24 nM | > 50 µM | > 50 µM |
| O=C(Cn1cc(C#Cc2ccc3c4cccc5cccc(c6cccc2c63)c54)c(=O)[nH]c1=O)NCCCO | > 50 µM | Toxic | > 104 µM | > 104 µM | Not Active | Toxic | inactive | inactive | > 50 µM | Toxic | 6 nM | > 50 µM | > 50 µM |
